Source: US20140248212A1, “NON-IMMUNOGENIC POSITRON EMISSION TOMOGRAPHY REPORTER GENE SYSTEMS” (THE REGENTS OF THE UNIVERSITY OF CALIFORNIA, priority 2011, published 2014)
“Also recorded” adds a separate entry of the source.

Experiments:
[1] = system: TK2-N93D/L109F-expressing L1210 cells; assay: L-18F-FMAU uptake assay, transduced L1210 cells (TK2-N93D/L109F); format: cell-based, murine
Experimental: The L1210 cell line (see, e.g. Jordheim, L. P., et al. (2004) Clin. Cancer Res. 10, 5614-5621) was a gift. Cells were cultured at 5% v/v CO2 and 37° C. in RPMI supplemented with 5% v/v FCS. Murine stem cell virus (pMSCV)-based helper-free retroviruses encoding the TK2 mutants (or sr39tk), an internal ribosomal entry site, and the yellow fluorescent protein (YFP) were produced by transient co-transfection of the amphotrophic retrovirus packaging cell line Phoenix (American Type Culture Collection, SD 3443) (see, e.g. Hawley, R. G., et al. (1994) Gene. Ther. 1, 136-138). L1210 cells underwent spinfection with the pMSCV-TK2 mutants-internal ribosomal entry site-YFP retrovirus with 2 μg/ml Polybrene (1000×g, 120 min, 37° C.). L1210 cells expressing various PRGs, (L1210-PRG) were FACS-sorted to ensure that each population had equivalent levels of PRG expression.
L1210 cells transduced with the indicated PET reporter genes (L1210-PRG) were seeded at a density of 500,000 cells/well in 24-well plates. 5 μCi of L-^18F-FMAU were added to the L1210-PRG cells simultaneously with the indicated amounts of D-thymidine (D-dT) at a final volume of 1 ml/well. After 1 h at 37° C., cells were harvested and washed four times with ice-cold PBS. Radioactivity was measured using a gamma counter.

[2] = Human whole-body PET/CT biodistribution of PET reporter probes; format: in vivo; details: for accumulation in myocardium / heart and liver: healthy volunteers; for intestinal / GI tract activity compared with 18F-FHBG / tracer background within abdomen and pelvis: human; for tracer background within abdomen and pelvis: whole-body PET/CT
Source text: All studies involving human volunteers were approved. A healthy person and a healthy volunteer were recruited for the L-^18F-FMAU biodistribution study. Each volunteer received a bolus intravenous injection of ˜56 MBq (1.5 mCi) sterile L-^18F-FMAU and had four consecutive whole-body (starting from just above the head to above the knees, 6 bed positions, 5-min scan at each bed position) PET scans (Biograph 64, Siemens), with the first scan starting shortly after intravenous injection of L-^18F-FMAU. A low dose CT scan was also obtained for attenuation correction. Volunteers urinated after all scans had been performed. The region of interest analysis was performed to measure mean standard uptake values of L-^18F-FMAU in major organs/tissues. To illustrate the biodistribution of ^18F-FHBG, unpublished scan from a previous study (see, e.g. Yaghoubi, S. S., et al. (2009) Nat. Clin. Pract. Oncol. 6, 53-58) was used.

[3] = system: TK2-N93D-expressing L1210 cells; assay: L-18F-FMAU uptake assay, transduced L1210 cells (TK2-N93D); format: cell-based, murine
Source text: To overcome the negative feedback limitation of TK2, a point mutation-N93D, was engineered. The work done by Piskur and colleagues on the structurally related Drosophila melanogaster deoxyribonucleoside kinase (see, e.g. Welin, M., et al. FEBS J 272:3733-3742, 2005) led one to predict that the N93D mutation would reduce the feedback inhibition of TK2 by dTTP. This prediction was confirmed by a comparison between the wild type (WT) and the TK2-N93D mutant in a kinase assay in which increasing concentrations of dTTP were added to inhibit TK2 enzymatic activity (FIG. 8B). We then determined whether the enhanced resistance to feedback inhibition translates into improved TK2-N93D catalytic activity towards the L-[^18F]FMAU substrate. The murine leukemic cell line L1210 was engineered to express the WT and mutated PRG. PRG-expressing L1210 cell lines were sorted to similar levels of gene expression, using enhanced yellow fluorescent protein (eYFP) as a co-linked fluorescent marker. […] It was also examined whether the expression of TK2-N93D had detrimental effects on cellular physiology (criterion 4 for PRGs). […] In contrast, sr39tk overexpression induced a 4-fold increase in dTTP pools (FIG. 9C). […] These findings provide evidence that the utility of sr39tk is limited not only by its immunogenicity but also by its effects on normal cellular physiology.
The L1210 cell line (see, e.g. Jordheim, L. P., et al. (2004) Clin. Cancer Res. 10, 5614-5621) was a gift. Cells were cultured at 5% v/v CO2 and 37° C. in RPMI supplemented with 5% v/v FCS. […]
L1210 cells transduced with the indicated PET reporter genes (L1210-PRG) were seeded at a density of 500,000 cells/well in 24-well plates. […] Radioactivity was measured using a gamma counter.

Cc1cn([C@H]2O[C@@H](CO)[C@H](O)[C@H]2[18F])c(=O)[nH]c1=O [L-^18F-FMAU, 2′-deoxy-2′-^18F-5-methyl-1-β-L-arabinofuranosyluracil]
in vitro uptake of 18F-L-FMAU compared to TK2-N0 ([1]; TK2-N5 (TK2-N93D/L109F)): two-fold increase | inhibition of uptake by thymidine compared to TK2-N0 ([1]; TK2-N5 (TK2-N93D/L109F)): less resistance to inhibition by thymidine | L-18F-FMAU uptake, higher than that of TK2-L109F cells ([1]; absence of D-dT): ~4 times | L-18F-FMAU uptake, higher than that of TK2-N93D cells ([1]; absence of D-dT): 1.5 times | decrease of L-18F-FMAU uptake ([1]; in the presence of 5 μM D-dT): 47% | tissues with relatively high signals ([2]; 2 h post-administration): relatively high signals were observed in liver, kidneys, gall bladder, bladder, and the GI tract | liver activity compared with 18F-FHBG ([2]; at 2 h): more intense activity | uptake pattern in healthy volunteer ([2]; first in human study, FIG. 20): mainly in its clearance routes, liver and bladder, with relatively low accumulation in intestines and some accumulation in the heart | accumulation in myocardium / heart and liver [2]: accumulation was also observed in the myocardium; also recorded: accumulates in the myocardium and liver | accumulation in myocardium / heart and liver ([2]; listed as L-[^18F]FMAU): accumulates in these tissues | intestinal / GI tract activity compared with 18F-FHBG [2]: lower than that of ^18F-FHBG | intestinal / GI tract activity compared with 18F-FHBG ([2]; listed as 18F-L-FMAU): lower intestinal background | tracer background within abdomen and pelvis ([2]; listed as L-[^18F]-FMAU): very low background in abdominal cavity | tracer background within abdomen and pelvis ([2]; listed as L-[^18F]FMAU): very low tracer background | increase in L-18F-FMAU uptake relative to cells expressing WT TK2 ([3]; 1 h uptake, FIG. 27C): 1.5 fold | L-[18F]FMAU accumulation compared to WT TK2 transduced cells ([3]; FIG. 8C): increased accumulation; also recorded: increased uptake | decrease of L-18F-FMAU uptake ([3]; in the presence of 5 μM D-dT): 75%
